{"source": "patent US20160091485A1", "about": "“MARKERS FOR EZH2 INHIBITORS” (THE BROAD INSTITUTE, INC., priority 2013, published 2016)", "key": {"wild type EZH2": {"target": "wild type EZH2 (Homo sapiens, UniProt Q15910)", "sequence (Q15910 whole entry)": "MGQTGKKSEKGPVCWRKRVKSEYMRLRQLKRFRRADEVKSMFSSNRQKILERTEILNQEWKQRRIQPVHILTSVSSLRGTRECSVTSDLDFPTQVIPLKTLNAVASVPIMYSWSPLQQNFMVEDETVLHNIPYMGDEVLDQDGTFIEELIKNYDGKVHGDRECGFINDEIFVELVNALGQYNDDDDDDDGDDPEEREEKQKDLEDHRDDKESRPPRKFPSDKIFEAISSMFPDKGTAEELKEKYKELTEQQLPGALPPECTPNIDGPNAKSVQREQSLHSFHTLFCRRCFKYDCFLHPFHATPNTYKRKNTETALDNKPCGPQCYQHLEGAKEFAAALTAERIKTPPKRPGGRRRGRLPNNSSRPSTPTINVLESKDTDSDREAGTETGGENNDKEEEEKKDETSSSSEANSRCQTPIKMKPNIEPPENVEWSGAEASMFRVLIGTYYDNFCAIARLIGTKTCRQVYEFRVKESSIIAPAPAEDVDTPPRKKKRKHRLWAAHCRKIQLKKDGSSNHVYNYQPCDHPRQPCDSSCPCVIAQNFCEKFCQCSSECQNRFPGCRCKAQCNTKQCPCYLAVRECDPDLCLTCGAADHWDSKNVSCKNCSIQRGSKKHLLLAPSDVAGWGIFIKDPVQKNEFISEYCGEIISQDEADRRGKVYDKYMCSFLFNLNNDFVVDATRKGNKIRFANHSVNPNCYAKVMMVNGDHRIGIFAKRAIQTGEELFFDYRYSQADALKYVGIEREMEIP", "sequence (O75530 whole entry partner)": "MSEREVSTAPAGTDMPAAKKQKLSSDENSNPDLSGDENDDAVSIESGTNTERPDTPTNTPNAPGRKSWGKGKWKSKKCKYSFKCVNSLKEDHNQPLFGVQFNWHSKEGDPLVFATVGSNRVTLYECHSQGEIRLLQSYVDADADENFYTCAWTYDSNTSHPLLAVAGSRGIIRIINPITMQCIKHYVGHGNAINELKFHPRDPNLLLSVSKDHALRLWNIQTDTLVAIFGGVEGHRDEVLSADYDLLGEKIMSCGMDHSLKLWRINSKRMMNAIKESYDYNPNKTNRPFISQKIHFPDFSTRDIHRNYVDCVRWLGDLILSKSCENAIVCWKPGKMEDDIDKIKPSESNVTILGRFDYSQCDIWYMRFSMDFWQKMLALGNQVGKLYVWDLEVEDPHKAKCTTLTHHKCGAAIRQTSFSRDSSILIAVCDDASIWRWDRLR", "sequence (Q15022 whole entry partner)": "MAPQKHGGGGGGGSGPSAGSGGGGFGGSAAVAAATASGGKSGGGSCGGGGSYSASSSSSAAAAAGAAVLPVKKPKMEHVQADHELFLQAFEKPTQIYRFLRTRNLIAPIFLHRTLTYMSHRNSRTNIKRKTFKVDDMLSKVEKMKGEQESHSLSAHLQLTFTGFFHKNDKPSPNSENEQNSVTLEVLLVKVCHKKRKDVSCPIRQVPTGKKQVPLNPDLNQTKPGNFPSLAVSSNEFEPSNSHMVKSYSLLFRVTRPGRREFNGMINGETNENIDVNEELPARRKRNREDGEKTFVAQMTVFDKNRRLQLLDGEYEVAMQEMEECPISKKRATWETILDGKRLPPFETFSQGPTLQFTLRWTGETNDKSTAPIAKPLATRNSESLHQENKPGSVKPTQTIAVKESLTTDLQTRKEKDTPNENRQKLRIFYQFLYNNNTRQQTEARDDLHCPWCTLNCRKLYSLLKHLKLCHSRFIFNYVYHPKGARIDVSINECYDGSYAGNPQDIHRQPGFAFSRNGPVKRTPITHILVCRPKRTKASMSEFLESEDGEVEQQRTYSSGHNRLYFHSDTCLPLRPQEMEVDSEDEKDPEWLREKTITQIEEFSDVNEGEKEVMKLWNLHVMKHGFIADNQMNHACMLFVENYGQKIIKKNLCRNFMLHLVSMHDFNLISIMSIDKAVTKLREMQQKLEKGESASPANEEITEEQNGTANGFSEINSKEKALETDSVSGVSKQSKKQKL", "settings": "SAM competitive; cited from earlier work"}, "Y641F EZH2": {"target": "Y641F EZH2 (Homo sapiens, UniProt Q15910, Y641F)", "sequence (Q15910 whole entry Y641F)": "as the sequence (Q15910 whole entry) above, with Y641F counted along it", "sequence (O75530 whole entry partner)": "as the sequence (O75530 whole entry partner) above", "sequence (Q15022 whole entry partner)": "as the sequence (Q15022 whole entry partner) above", "settings": "SAM competitive; cited from earlier work"}, "[1]": {"test_system": "cells carrying EZH2 gain of function mutation, not in cluster A (low levels of H3K27me3)", "assay": "Cell proliferation, EZH2 gain of function cells not in cluster A", "format": "cell-based", "settings": "FIG. 6, cells predicted sensitive by genotyping, insensitive by MCS", "method": "(§1) B cell lymphoma cells were cultured using standard cell culture conditions. For example, lymphoma cells were cultured in RPMI-1640 (Invitrogen, cat #11875, Grand Island, N.Y.) supplemented with 15% FBS (Invitrogen, cat #10099-141, Grand Island, N.Y.) in humidified incubator at 37° C., 5% CO2. To assess the effect of EZH2 inhibitor on cell proliferation, exponentially growing cells were seeded at a density of 1×10^5 cells/ml in 12-well plate (Corning, cat #CLS3513 Tewksbury, Mass.). Compounds were added after cell seeding at the indicated final concentration, and viable cell number was determined every 3-4 days continuously during the course of experiment using Vi-CELL (Beckman Coulter, Brea, Calif.). On days of cell counting, fresh growth media and compound were replenished and cells split back to a density of 1×10^5 cells/ml. Total cell number and population doubling was then calculated."}, "[2]": {"test_system": "cancer cell lines with EZH2 gain-of-function mutations (MCS Cluster A)", "assay": "Cell proliferation, cell lines sensitive by EZH2 genotype and MCS (cluster A)", "format": "cell-based", "settings": "FIG. 5; cells predicted to be sensitive by EZH2 genotyping and by MCS", "method": "as §1"}}}
{"smiles": "CCC(CC)n1ccc2c(C(=O)NCc3c(C)cc(C)[nH]c3=O)cc(C#N)cc21", "note": "[EI1, 6-cyano-N-((4,6-dimethyl-2-oxo-1,2-dihydropyridin-3-yl)methyl)-1-(pentan-3-yl)-1H-indole-4-carboxamide]", "values": [{"measurement": "IC50", "setting": "wild type EZH2", "value": 9.4, "unit": "nM"}, {"measurement": "IC50", "setting": "Y641F EZH2", "value": 13.2, "unit": "nM"}, {"measurement": "sensitivity of cells to EZH2 inhibitor (cell proliferation)", "setting": "[1]", "value": "insensitive"}, {"measurement": "sensitivity of cells to EZH2 inhibitor (cell proliferation)", "setting": "[2]", "value": "sensitive"}]}
